{"source": "patent US20160235778A1", "about": "“COMPOSITIONS CONTAINING PUFA, URIDINE AND CHOLINE AND METHODS OF USE THEREOF” (MASSACHUSETTS INSTITUTE OF TECHNOLOGY, priority 2014, published 2016)", "key": {"brain phospholipids [1]": {"tested_on": "brain phospholipids", "experiment": "Brain phospholipid levels in pups of treated pregnant and nursing mothers", "assay_type": "in vivo", "details": "rat pups", "protocol": "(§1) In another study, pregnant rats were allowed to consume ad libitum, for 10 days before parturition and 20 days while nursing, either a choline-containing control diet or this diet supplemented with uridine as UMP; half of each group also received DHA or its diluent daily, by gavage. Pups were then sacrificed and brain slices were examined to determine numbers of hippocampal dendritic spines.\nPregnant and nursing rats were administered DHA and/or uridine as described in Example 9. At 20 days post-birth, rats were sacrificed and brain samples were obtained and assayed for phospholipids. Administration of DHA alone increased brain PC, PI, PE, and sphingomyelin (SM) per cell (DNA) by 36, 166, 38, and 78%, respectively. UMP markedly amplified the effects of DHA to 66, 210, 68, and 99% of control, respectively (Table 8). These increases were greater than those observed in adult animals. Similar results were obtained when normalizing to protein (Table 9). Thus, administration of DHA and/or uridine to pregnant and nursing mothers is able to increase phospholipid levels in the offspring."}, "Rat hippocampal cells": {"tested_on": "Rat hippocampal cells", "experiment": "14C-choline incorporation into PC in cultured hippocampal neurons", "assay_type": "cell-based", "details": "DHA+choline, 14C-choline 2 h, FIG. 10", "protocol": "Rat hippocampal cells were cultured for 3 weeks in Neutrobasal plus B27 medium, to reach full maturation. On the day of the experiment, cells were incubated with DMEM+choline, with or without added DHA. ^14C-choline was added, cells were incubated for an additional 2 h, and newly-formed ^14C-labeled PC was extracted and measured as described in Example 1."}, "brain CDP-choline": {"tested_on": "brain CDP-choline", "experiment": "Brain CDP-choline and CDP-ethanolamine levels (HPLC)", "assay_type": "in vivo", "details": "gerbil", "protocol": "FIG. 5A-B. Effects of DHA on brain CDP-choline levels (FIG. 5A) and CDP-ethanolamine levels (FIG. 5B). Groups of 8 gerbils received either a control or a UMP-containing diet, and, by gavage, DHA (in a vehicle of 5% gum Arabic solution) or 5% gum Arabic solution alone for 28 days. On the 29th day brains were harvested and assayed for CDP-choline. Data are presented as means±SEM. Statistical analysis was performed using one- or two-way ANOVA followed by Tukey test. a: P<0.05 when compared with the values for control diet plus vehicle group; b: P<0.05 when compared with values for UMP diet plus vehicle group.\nAliquots (2 ml) of the upper (aqueous) phase were dried under a vacuum, reconstituted, and injected into an HPLC. The dried samples were reconstituted in 100-200 μl water and were analyzed by HPLC on an anion exchange column (Alltech Hypersil APS-2, […], 250×4.6 mm). CDP-choline was eluted with a linear gradient of buffers A (H3PO4, 1.75 mM, pH 2.9) and B (NaH2PO2, 500 mM, pH 4.5) from 0 to 100% B over period of 30 min. With this system, CDP-choline was resolved from closely co-eluting substances such as UMP in an isocratic system over a period of 40 min. The retention time for CDP-choline was 9.5 min. The column was washed with buffer B at the end of each experiment and every several days to remove retained nucleotides. Individual nucleotide peaks were detected by UV absorption at 280 nm and were identified by comparison with the positions of authentic standards, as well as by the addition of nucleotide standards to samples."}, "brain phospholipids [2]": {"tested_on": "brain phospholipids", "experiment": "Brain phospholipid levels in gerbils given UMP diet and/or PUFA by gavage", "assay_type": "in vivo, gerbil", "parameters": "PC / PE / PS / PI: unit not given here", "protocol": "Control standard diet (Table 4) consisted of Teklad Global 16% protein rodent diet (Harlan Teklad, Madison, Wis.), which contained 0.1% choline chloride (CC), corresponding to a daily dose of 50 mg/kg/day. UMP was provided as 0.5% UMP·2Na^+ weight/weight, added to the control diet, also prepared by Harlan Teklad, corresponding to 240 mg/kg/day UMP. DHA was administered as 300 mg/kg/day in 200 microliter (mcL)/day 5% Arabic Gum solution, while groups not receiving DHA were administered vehicle (5% Arabic Gum) alone. DHA was provided by Nu-Chek Prep (Elysian, MN) and UMP by Numico (Wagenigen, NL).\nGerbils were anesthetized with ketamine and xylazine (80 and 10 mg/kg bwt, i.p.) and sacrificed by immersing the head into liquid nitrogen for 2 min, followed by decapitation. Brains were immediately and quickly (30 seconds) removed using a bone rongeur and stored at −80° C.\nFrozen brain hemispheres were weighed and homogenized in 100 volumes of ice-cold deionized water using a tissue degrader (Polytron PT 10-35, Kinematica AG, Switzerland), then analyzed as described in Example 1.\nProtein in whole brain homogenate sample was measured for using bicinchoninic acid reagent (Perkin Elmer, Norwalk, Conn., USA). DNA was measured by measuring 460 nm emission of samples on a fluorometer in the presence of bisbenzimidizole, a fluorescent dye known as Hoechst H 33258 (American Hoechst Corporation), which has an excitation maximum at 356 nm and an emission maximum of 458 when bound to DNA.\nMale gerbils weighing 80-100 g were divided into 4 groups of 8 gerbils and administered the supplements depicted in Table 1:\nAdult gerbils were administered control standard diet (Table 4) with our without 0.5% UMP and/or 300 mg/kg/day DHA, EPA, or AA. Groups not receiving DHA were administered vehicle (5% Arabic Gum) alone."}, "[3]": {"tested_on": "hippocampal dendritic spines", "experiment": "Hippocampal dendritic spine numbers in pups of treated pregnant and nursing mothers", "assay_type": "in vivo", "details": "rat pups, mothers treated 10 days before parturition and 20 days while nursing", "description": "as §1"}, "[4]": {"details": "postnatal day 20, normalized to DNA"}, "[5]": {"details": "postnatal day 20, normalized to protein"}, "[6]": {"details": "gerbil brain, 3 weeks, 0.5% UMP and/or 300 mg/kg/day PUFA, Table 6"}, "[7]": {"details": "gerbil brain, 4 weeks, normalized to DNA levels, mean +/- SEM"}, "[8]": {"details": "gerbil brain, 4 weeks, normalized to protein levels, mean +/- SEM"}, "[9]": {"details": "gerbil, Table 5A study, vs control"}}}
{"compound": "CCC=CCC=CCC=CCC=CCC=CCC=CCCC(=O)O", "note": "[DHA, 4,7,10,13,16,19-docosahexaenoic acid]", "values": [{"measurement": "PC, percent increase over control", "setting": "brain phospholipids [1]; [4]", "value": 36, "unit": "%"}, {"measurement": "PE, percent increase over control", "setting": "brain phospholipids [1]; [4]", "value": 38, "unit": "%"}, {"measurement": "PI, percent increase over control", "setting": "brain phospholipids [1]; [4]", "value": 166, "unit": "%"}, {"measurement": "SM, percent increase over control", "setting": "brain phospholipids [1]; [4]", "value": 78, "unit": "%"}, {"measurement": "Total Phospholipids, percent increase over control", "setting": "brain phospholipids [1]; [4]", "value": 30, "unit": "%"}, {"measurement": "PC, percent increase over control", "setting": "brain phospholipids [1]; [5]", "value": 23, "unit": "%"}, {"measurement": "PE, percent increase over control", "setting": "brain phospholipids [1]; [5]", "value": 24, "unit": "%"}, {"measurement": "PI, percent increase over control", "setting": "brain phospholipids [1]; [5]", "value": 141, "unit": "%"}, {"measurement": "SM, percent increase over control", "setting": "brain phospholipids [1]; [5]", "value": 59, "unit": "%"}, {"measurement": "Total Phospholipids, percent increase over control", "setting": "brain phospholipids [1]; [5]", "value": 16, "unit": "%"}, {"measurement": "increase in synthesis of phospholipids relative to choline alone (control)", "setting": "Rat hippocampal cells", "value": "more than 2 fold"}, {"measurement": "reduction of brain CDP-choline levels in UMP-treated gerbils", "setting": "brain CDP-choline; 28 days, compared with UMP-containing diet and DHA's vehicle", "value": 21, "unit": "%"}, {"measurement": "reduction of brain CDP-choline levels", "setting": "brain CDP-choline; 28 days, compared with control diet and DHA's vehicle", "value": 26, "unit": "%"}, {"measurement": "brain CDP-choline levels, in words", "setting": "brain CDP-choline; FIG. 5A", "value": "decreased"}, {"measurement": "brain CDP-ethanolamine levels, in words", "setting": "brain CDP-choline; FIG. 5B", "value": "decreased"}, {"measurement": "PC", "setting": "brain phospholipids [2]; [6]", "value": "133 ± 6"}, {"measurement": "PE", "setting": "brain phospholipids [2]; [6]", "value": "77 ± 2"}, {"measurement": "PI", "setting": "brain phospholipids [2]; [6]", "value": "18 ± 2"}, {"measurement": "PS", "setting": "brain phospholipids [2]; [6]", "value": "34 ± 3"}, {"measurement": "SM", "setting": "brain phospholipids [2]; [6]", "value": "24 ± 2"}, {"measurement": "Total PL", "setting": "brain phospholipids [2]; [6]", "value": "344 ± 16"}, {"measurement": "PC", "setting": "brain phospholipids [2]; [7]", "value": "366 ± 13"}, {"measurement": "PE", "setting": "brain phospholipids [2]; [7]", "value": "196 ± 18"}, {"measurement": "PI", "setting": "brain phospholipids [2]; [7]", "value": "84 ± 13"}, {"measurement": "PS", "setting": "brain phospholipids [2]; [7]", "value": "98 ± 7"}, {"measurement": "SM", "setting": "brain phospholipids [2]; [7]", "value": "126 ± 8"}, {"measurement": "Total PL", "setting": "brain phospholipids [2]; [7]", "value": "909 ± 77"}, {"measurement": "PC", "setting": "brain phospholipids [2]; [8]", "value": "185 ± 12"}, {"measurement": "PE", "setting": "brain phospholipids [2]; [8]", "value": "78 ± 5"}, {"measurement": "PI", "setting": "brain phospholipids [2]; [8]", "value": "32 ± 2"}, {"measurement": "PS", "setting": "brain phospholipids [2]; [8]", "value": "39 ± 3"}, {"measurement": "SM", "setting": "brain phospholipids [2]; [8]", "value": "56 ± 3"}, {"measurement": "Total PL", "setting": "brain phospholipids [2]; [8]", "value": "392 ± 20"}, {"measurement": "increase in levels of total phospholipids", "setting": "brain phospholipids [2]; gerbil brain, 4 weeks, vs control group", "value": 12, "unit": "%"}, {"measurement": "PtdCho", "setting": "brain phospholipids [2]; gerbil brain, Table 5 part A", "value": "185 ± 12", "unit": "nmol/mg prt"}, {"measurement": "PtdEtn", "setting": "brain phospholipids [2]; gerbil brain, Table 5 part A", "value": "78 ± 5", "unit": "nmol/mg prt"}, {"measurement": "PtdIns", "setting": "brain phospholipids [2]; gerbil brain, Table 5 part A", "value": "32 ± 2", "unit": "nmol/mg prt"}, {"measurement": "PtdSer", "setting": "brain phospholipids [2]; gerbil brain, Table 5 part A", "value": "39 ± 3", "unit": "nmol/mg prt"}, {"measurement": "SM", "setting": "brain phospholipids [2]; gerbil brain, Table 5 part A", "value": "56 ± 3", "unit": "nmol/mg prt"}, {"measurement": "Total PL", "setting": "brain phospholipids [2]; gerbil brain, Table 5 part A", "value": "392 ± 20", "unit": "nmol/mg prt"}, {"measurement": "brain phospholipid levels, in words", "setting": "brain phospholipids [2]; gerbil, 3 weeks", "value": "increased phospholipid levels"}, {"measurement": "increase in brain level of PC", "setting": "brain phospholipids [2]; [9]", "value": 22, "unit": "%"}, {"measurement": "increase in brain level of PE", "setting": "brain phospholipids [2]; [9]", "value": 20, "unit": "%"}, {"measurement": "increase in brain level of PI", "setting": "brain phospholipids [2]; [9]", "value": 52, "unit": "%"}, {"measurement": "increase in brain level of sphingomyelin", "setting": "brain phospholipids [2]; [9]", "value": 24, "unit": "%"}, {"measurement": "Increase over control (%)", "setting": "[3]", "value": 32, "unit": "%"}, {"measurement": "Number of spines", "setting": "[3]", "value": 70}]}
